Source: article PMC7153278, “Discovery of Membrane-Bound Pyrophosphatase Inhibitors Derived from an Isoxazole Fragment” (ACS Medicinal Chemistry Letters, 2020)

Experiments:
[1] = target: Thermotoga maritima mPPase (TmPPase) (Thermotoga maritima, UniProt Q9S5X0); assay: TmPPase inhibition assay (96-well plate, orthophosphate determination); type: biochemical; details: computed using the pIC50 and the Heavy Atom Count (LEHA) normalization method, Discovery Studio
Protocol: The inhibition assay was measured in 96 well plate assay as previously reported.5,6 Briefly, 1 µL of purified TmPPase (13 mg/mL) was reactivated in 99 µL of reactivation buffer (20 mM 2-(N-morpholino) ethanesulfonic acid (MES) pH 6.5, 3.5% (v/v) glycerol, 2 mM dithiothreitol (DTT), 4.5% dodecyl maltoside (DDM) and 12 mg/mL L-α-phosphatidylcholine from soybean) and incubated at 55 °C for 15 min. For the assay, to each tube strips, 0.2 µL of the reactivated enzyme was added to 14.8 µL of reaction buffer (200 mM Tris-Cl pH 8.0, 8.0 mM MgCl2, 333 mM KCl, and 67 mM NaCl) and 25 µL of inhibitor. The reaction mixtures were sealed with an adhesive sealing sheet (Thermo Scientific) and incubated at 71 °C for 5 min. The reactions were started with the addition of 10 µL of 2 mM sodium pyrophosphate, further incubation at 71 °C for 5 min and stopped by placing the reaction mixtures on ice for 10 min. The color development was done with the addition of ammonium heptamolybdate + ascorbic acid solution on ice for 10 min and then 90 µL of arsenic solution, at room temperature, for a minimum of 30 min. 180 µL of each reaction mixtures was then transferred into a clear 96 well polystyrene microplate and the absorbance was measured at 860 nm using a microplate spectrophotometer (MultiSkan Go, Thermo Scientific). The pilot inhibitor screening of 16 phosphate-mimicking fragments was done at 100 μM inhibitor concentration. Further screening was done with three different concentrations; 1 μM, 5 μM and 50 μM for soluble compounds, and 1 μM, 5 μM, and 20 μM for sparingly soluble compounds.6 The best hits were validated using 8 concentrations in triplicate in TmPPase.
The potent hits 12k and 12l compounds were then tested on the P. falciparum (PfPPase-VP1) membrane fractions expressed in baculovirus-infected insect cells (the expression method and further enzyme analysis will be described in more detail elsewhere). Briefly, to each tube strips, 2.4 µL of PfPPase-VP1 membrane fraction (5 mg/mL) was added into 12.6 µL of reaction buffer (200 mM Tris-Cl pH 8.0, 8.0 mM MgCl2, 333 mM KCl, 67 mM NaCl, 3.3 mM NaF, and 17 μM Gramicidin D) and 25 µL of inhibitor. The reaction mixtures were incubated at 30 °C for 5 min and the assay was started by the addition of 10 µL of 2 mM sodium pyrophosphate and further incubation at 30 °C for 10 min. The reaction termination and color development were done as before.
The in vitro anti-plasmodial activity assay strain 3D7 was maintained in culture as described previously.7 Briefly, parasites were cultured in O+ human erythrocytes at 5% haematocrit in RPMI - 1640 medium supplemented with 0.5% Albumax II (Gibco, Carlsbad, CA, USA), 200 μM hypoxanthine (Sigma, St. Louis, MO, USA) and 20 μg/mL gentamycin (Gibco). Parasites were synchronized with the sorbitol method as described. 8 Test compound was dissolved in DMSO to make a stock solution of 10 mM. Two -fold serial dilutions of the test compound were made in the culture medium to cover the range of 400 µM – 400 nM. Fifty microliters of each dilution were mixed in 96 well plate with 150 µL of 2% haematocrit of 0.5% parasitemia (ring stage). DMSO concentration in the highest compound concentration w as 0.1%. After 72 h incubation at 37 °C, the parasite growth was quantified using fluorescent SYBR Green I ® -based assay as described. 9 The half-maximal inhibitory concentration (IC 50) of the test compound was assessed using the non-linear regression fit model in Prism 7 (GraphPad Software). The potent anti-malarial drug, artemisinin, was use in parallel as a positive control. Each concentration of the test compound was tested in duplicate and the assay was repeated three times. The mean and standard deviation of the three repeats were used to estimate the IC50.
IC50 determinations were done using R 3.6.110 and the n-parameter logistic regression (nplr) package11 version 0.1-7. In this package, the weighted nplr, given x (compound concentrations) and […]

[2] = Colloidal aggregation under TmPPase assay conditions (nephelometry); type: physicochemical
Protocol: Aggregation data for 5, 12k and 12l (Figure S1)
Potential colloidal aggregation in the TmPPase model system was studied at five concentrations (50 µM, 25 µM, 10 µM, 5 µM, and 1 µM). The original assay conditions were simulated, and the light scattering of potential aggregates in the mixture was studied by nephelometric methods using Nepheloskan Ascent® (Labsystems, Finland). Aggregation of the blank and compounds 5, 12k and 12l were measured as triplicates from one independent experiment at three different voltages (300 V, 400 V and 500 V) at room temperature.
5 µM and 1 µM concentrations the obtained values were close to those observed by the blank, thereby […]
Figure S1. Aggregation data for compounds 5, 12k and 12l. The data, measured in relative nephelometric units (RNU), is shown as the mean ± SD and normalized to the blank.
(1 picture or pasted object on this page, not shown here)
Experimental procedures and characterization data
Commercial analogues were retrieved by screening the ZINC12 database1 (clean drug-like subset; downloaded on 27.04.2016) using a KNIME2 workflow connected to the RDKit3 nodes. The SAR analyses and docking studies (data not shown) underlying this work were conducted using the Schrödinger molecular modeling platform (Canvas and Glide modules, respectively)4 .
Compounds 1–7, 13–20 and 24 were obtained from commercial suppliers. Supporting Information, Table S1 summarizes the compounds tested. Compound purity was >95% as determined by LC-MS and characterized by HRMS. For all commercial compounds after the initial screen, purity was tested independently from the vendor specification (a few compounds of lower purity are reported only in Supporting Information). To evaluate potential aggregation of samples in the TmPPase based assay, aggregate formation in the assay conditions was studied at five concentrations (50 μM, 25 μM, 10 μM, 5 μM, and 1 μM) for compounds 5, 12k and 12l (Figure S1).
All chemicals used were commercially available. Reactions using anhydrous conditions were conducted in oven-dried (130 °C, >24 h) glassware, purged with argon prior to use. Microwave reactions were performed using a Biotage Initiator+ instrument (Uppsala, Sweden). The progress of the reactions was monitored by thin-layer chromatography on silica gel 60-F254 aluminum plates and visualized by using a dual short/long wave (254/366 nm) UV lamp. The combined organic solutions from extractions were dried over anhydrous Na2SO4, filtered and concentrated with a rotary evaporator at reduced pressure. Flash SiO2 column chromatography was performed with automated high performance flash chromatography, Biotage Isolera™ Spektra Systems with ACI™ and Assist (ISO-1SW Isolera One) equipped with a variable UV-VIS (200–800 nm) photodiode array (Uppsala, Sweden) using SNAP KP-SIL/Ultra 10 g or 25 g cartridges and the indicated mobile phase gradient.
The reactions were not optimized and all the yields are given for purified products.
Characterization of the synthesized products were done by NMR and MS analysis. 1H and 13C NMR spectra were acquired at 298 K on a Bruker Ascend 400 MHz – Avance III HD NMR spectrometer (Bruker Corporation, Billerica, MA, USA). Chemical shifts (δ) are reported in parts per million (ppm) relative to the residual solvent signals: CDCl3 7.26 and 77.16 ppm, CD3OD 3.31 and 49.00 ppm, DMSO-d6 2.50 and 39.52 ppm for 1H and 13C NMR, respectively. […] High resolution mass (HRMS-ESI) data was reported for the calculated and experimentally […]

Thermotoga maritima mPPase (TmPPase), sequence (Q9S5X0 whole entry): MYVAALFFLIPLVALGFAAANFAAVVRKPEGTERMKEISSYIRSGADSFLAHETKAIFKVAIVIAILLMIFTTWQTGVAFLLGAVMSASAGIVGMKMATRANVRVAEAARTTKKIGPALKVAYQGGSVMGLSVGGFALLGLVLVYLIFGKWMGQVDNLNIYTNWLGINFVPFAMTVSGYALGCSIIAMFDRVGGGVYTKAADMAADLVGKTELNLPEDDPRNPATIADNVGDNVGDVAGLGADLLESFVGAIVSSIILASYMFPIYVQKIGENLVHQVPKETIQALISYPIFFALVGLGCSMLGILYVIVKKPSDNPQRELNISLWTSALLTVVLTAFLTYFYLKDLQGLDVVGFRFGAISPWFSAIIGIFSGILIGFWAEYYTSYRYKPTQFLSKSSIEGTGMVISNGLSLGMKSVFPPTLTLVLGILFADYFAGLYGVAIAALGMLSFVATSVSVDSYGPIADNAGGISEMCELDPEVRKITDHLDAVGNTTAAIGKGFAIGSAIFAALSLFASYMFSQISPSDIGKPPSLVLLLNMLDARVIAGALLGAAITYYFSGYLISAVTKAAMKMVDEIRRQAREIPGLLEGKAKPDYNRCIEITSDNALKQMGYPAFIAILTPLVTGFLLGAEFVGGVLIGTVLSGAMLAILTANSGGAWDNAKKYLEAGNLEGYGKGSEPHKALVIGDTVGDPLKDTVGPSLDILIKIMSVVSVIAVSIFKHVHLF

Cc1nc(-c2cc(C(=O)O)no2)cs1 [Compound 5]
LE (ligand efficiency) [1]: 0.34
aggregation (light scattering) ([2]; 50, 25, 10, 5 and 1 µM, room temperature): no detectable aggregation at all

Cc1cc(C)cc(-c2cc(C(=O)Oc3ccccc3Br)no2)c1 [Compound 12k]
LE (ligand efficiency) [1]: 0.22
aggregation (light scattering) ([2]; at 10 µM, 5 µM and 1 µM): only minor/no detectable aggregation
aggregation (light scattering) ([2]; at 50 µM and 25 µM): showed aggregate formation
